Where two headings read alike, the source gives them in different places.
Columns and labels:
Ros1 enzyme = target: T1, Ros1 enzyme (Homo sapiens, UniProt P08922); experiment: Ros1 enzymatic assay; assay type: biochemical; conditions: Ros1 enzymatic assay; read-out: ROS1 pIC50 (converted)
T1 construct: 0.5 μg/ml Ros1 enzyme
Procedure, shortened: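 A radiometric assay mixed enzyme mix (0.5 μg/ml human Ros1) with substrate mix (6 μg/ml biotinylated IRS-Tide, 20 μM ATP plus [33P]ATP), both in 50 mM Tris-HCl pH 7.5, 10 mM MgCl2, 1 mM EGTA, 0.01% Tween-20. The reaction ran 120 min at room temperature, was stopped with EDTA plus streptavidin imaging beads, and was read by LEADseeker imaging.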

[1] = test system: Ros pY2274 in HCC78 cells; experiment: pROS1 immunofluorescence assay in HCC78 cells; assay type: cell-based; conditions: Homo sapiens, read-out: HCC78-pRos1 pIC50 (converted)
Procedure: pROS1 Immunofluorescence Assay in HCC78 Cells
Approximately 20000 HCC78 non-small cell lung cancer cells in 180 μl of cell culture medium (RPMI-1640, 10% FBS, 2 mM L-Glutamine, 10 mM Hepes, 1 mM sodium pyruvate, 4.5 g/L glucose, 1.5 g/L sodium bicarbonate, 25 μg/ml Gentamycin) were seeded in each well of a 96-well polystyrene, poly-D-lysine coated plate and incubated at 37° C. and 5% CO2. After 24 hours, compounds were diluted in cell culture medium from which 20 μl was added to the wells containing cells and incubated for 4 hours at 37° C. and 5% CO2. The medium was removed and the cells were fixed by adding 100 μl of 5% formaldehyde in TBS (tris-buffered saline) (50 mM Tris.HCl, pH 7.4, 150 mM NaCl) and incubating for 15 minutes at room temperature. The formaldehyde was removed and replaced with methanol for 10 minutes at room temperature, after which the cells were washed 3 times with TBS containing 1% Triton X-100 and incubated in Odyssee (Li-Cor) blocking buffer for 1 hour at room temperature. The cells were then incubated with the primary rabbit antibody directed against Ros pY2274 (cst-3078) diluted 1/200 in blocking buffer for 24 hours at room temperature. The cells were washed three times with TBS containing 0.1% Triton X-100 and incubated with a secondary anti-rabbit antibody conjugated to the fluorescent dye Alexafluor 680 in blocking buffer for 1 hour at room temperature. The cells were washed three times with TBS containing 0.1% Triton X-100 and left to dry before measuring RFUs (Relative Fluorescence Units) at 700 nm using a fluorescence imager.
The same experiment was performed using total Ros1 antibody (sc-6347) diluted 1/1000 instead of Ros1 pY2274 antibody and an anti-goat antibody conjugated to IRDye800cw as a secondary antibody. RFUs were measured at […]. The signals from total Ros1 detection were used to normalize the Ros1 pY2274 values.

[2] = target: Ba/F3 cells containing Ros1 with a mutation at the gatekeeper residue (L2026M) (Homo sapiens, UniProt P08922, L2026M, cells depend on it, form not given); experiment: Ba/F3-Ros1 cell proliferation assay, L2026M gatekeeper mutant; assay type: cell-based, murine; conditions: without IL-3
Procedure, shortened: (§1)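 Alamar Blue read-out (resazurin, ex. 540 nm, em. 590 nm, 4 h at 37 °C) after 24 h compound exposure of 20000 Ba/F3-Ros1 cells per well. Cells carry WT, gatekeeper L2026M or crizotinib-resistant G2032R Ros1; medium RPMI-1640, 10% FBS, 2 mM L-Glutamine.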

[3] = test system: HCC78 non-small cell lung cancer cells; experiment: HCC78 cell proliferation assay; assay type: cell-based; conditions: Homo sapiens, HCC78, 96 h, read-out: HCC-78 PROL pEC50 (converted)
Procedure, shortened: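 HCC78 NSCLC cells (~1000/well) in RPMI-1640 with 10% FBS were treated 24 h after seeding and exposed to compound for 4 days at 37 °C. Viability was read by MTT, with absorbance at 538 nm after DMSO/glycine solubilization.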

[4] = test system: Ba/F3 cells containing Ros1 wild-type protein + IL-3; experiment: Ba/F3-Ros1 cell proliferation counter-screen, wild-type protein in the presence of 10 ng/ml murine IL-3; assay type: cell-based; conditions: Mus musculus, BaF3, 24 h, read-out: BaF3-ROS1 + IL3 pIC50 (converted)
Procedure, shortened: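 Ba/F3 cells expressing wild-type Ros1, 20000 per well in RPMI-1640 with 10% FBS, cultured with compounds for 24 h at 37 °C with 10 ng/ml murine IL-3. Alamar Blue (resazurin) then added for 4 h. Fluorescence read at ex 540/em 590 nm.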

[5] = target: T2, Ba/F3 cells containing Ros1 wild-type protein (Homo sapiens, UniProt P08922, cells depend on it, form not given); experiment: Ba/F3-Ros1 cell proliferation assay, wild-type Ros1; assay type: cell-based, murine; conditions: without IL-3
T2 construct: The background only speaks of 'a number of different unrelated proteins' and names SLC34A2-ROS1 for HCC78 cells
Procedure, shortened: as §1

[6] = HCC78 cells, 4 hours, Ros pY2274 normalized to total Ros1
[7] = counter-screen, wild-type, 10 ng/ml murine IL-3

T2 sequence (P08922 whole entry, stated change not applied): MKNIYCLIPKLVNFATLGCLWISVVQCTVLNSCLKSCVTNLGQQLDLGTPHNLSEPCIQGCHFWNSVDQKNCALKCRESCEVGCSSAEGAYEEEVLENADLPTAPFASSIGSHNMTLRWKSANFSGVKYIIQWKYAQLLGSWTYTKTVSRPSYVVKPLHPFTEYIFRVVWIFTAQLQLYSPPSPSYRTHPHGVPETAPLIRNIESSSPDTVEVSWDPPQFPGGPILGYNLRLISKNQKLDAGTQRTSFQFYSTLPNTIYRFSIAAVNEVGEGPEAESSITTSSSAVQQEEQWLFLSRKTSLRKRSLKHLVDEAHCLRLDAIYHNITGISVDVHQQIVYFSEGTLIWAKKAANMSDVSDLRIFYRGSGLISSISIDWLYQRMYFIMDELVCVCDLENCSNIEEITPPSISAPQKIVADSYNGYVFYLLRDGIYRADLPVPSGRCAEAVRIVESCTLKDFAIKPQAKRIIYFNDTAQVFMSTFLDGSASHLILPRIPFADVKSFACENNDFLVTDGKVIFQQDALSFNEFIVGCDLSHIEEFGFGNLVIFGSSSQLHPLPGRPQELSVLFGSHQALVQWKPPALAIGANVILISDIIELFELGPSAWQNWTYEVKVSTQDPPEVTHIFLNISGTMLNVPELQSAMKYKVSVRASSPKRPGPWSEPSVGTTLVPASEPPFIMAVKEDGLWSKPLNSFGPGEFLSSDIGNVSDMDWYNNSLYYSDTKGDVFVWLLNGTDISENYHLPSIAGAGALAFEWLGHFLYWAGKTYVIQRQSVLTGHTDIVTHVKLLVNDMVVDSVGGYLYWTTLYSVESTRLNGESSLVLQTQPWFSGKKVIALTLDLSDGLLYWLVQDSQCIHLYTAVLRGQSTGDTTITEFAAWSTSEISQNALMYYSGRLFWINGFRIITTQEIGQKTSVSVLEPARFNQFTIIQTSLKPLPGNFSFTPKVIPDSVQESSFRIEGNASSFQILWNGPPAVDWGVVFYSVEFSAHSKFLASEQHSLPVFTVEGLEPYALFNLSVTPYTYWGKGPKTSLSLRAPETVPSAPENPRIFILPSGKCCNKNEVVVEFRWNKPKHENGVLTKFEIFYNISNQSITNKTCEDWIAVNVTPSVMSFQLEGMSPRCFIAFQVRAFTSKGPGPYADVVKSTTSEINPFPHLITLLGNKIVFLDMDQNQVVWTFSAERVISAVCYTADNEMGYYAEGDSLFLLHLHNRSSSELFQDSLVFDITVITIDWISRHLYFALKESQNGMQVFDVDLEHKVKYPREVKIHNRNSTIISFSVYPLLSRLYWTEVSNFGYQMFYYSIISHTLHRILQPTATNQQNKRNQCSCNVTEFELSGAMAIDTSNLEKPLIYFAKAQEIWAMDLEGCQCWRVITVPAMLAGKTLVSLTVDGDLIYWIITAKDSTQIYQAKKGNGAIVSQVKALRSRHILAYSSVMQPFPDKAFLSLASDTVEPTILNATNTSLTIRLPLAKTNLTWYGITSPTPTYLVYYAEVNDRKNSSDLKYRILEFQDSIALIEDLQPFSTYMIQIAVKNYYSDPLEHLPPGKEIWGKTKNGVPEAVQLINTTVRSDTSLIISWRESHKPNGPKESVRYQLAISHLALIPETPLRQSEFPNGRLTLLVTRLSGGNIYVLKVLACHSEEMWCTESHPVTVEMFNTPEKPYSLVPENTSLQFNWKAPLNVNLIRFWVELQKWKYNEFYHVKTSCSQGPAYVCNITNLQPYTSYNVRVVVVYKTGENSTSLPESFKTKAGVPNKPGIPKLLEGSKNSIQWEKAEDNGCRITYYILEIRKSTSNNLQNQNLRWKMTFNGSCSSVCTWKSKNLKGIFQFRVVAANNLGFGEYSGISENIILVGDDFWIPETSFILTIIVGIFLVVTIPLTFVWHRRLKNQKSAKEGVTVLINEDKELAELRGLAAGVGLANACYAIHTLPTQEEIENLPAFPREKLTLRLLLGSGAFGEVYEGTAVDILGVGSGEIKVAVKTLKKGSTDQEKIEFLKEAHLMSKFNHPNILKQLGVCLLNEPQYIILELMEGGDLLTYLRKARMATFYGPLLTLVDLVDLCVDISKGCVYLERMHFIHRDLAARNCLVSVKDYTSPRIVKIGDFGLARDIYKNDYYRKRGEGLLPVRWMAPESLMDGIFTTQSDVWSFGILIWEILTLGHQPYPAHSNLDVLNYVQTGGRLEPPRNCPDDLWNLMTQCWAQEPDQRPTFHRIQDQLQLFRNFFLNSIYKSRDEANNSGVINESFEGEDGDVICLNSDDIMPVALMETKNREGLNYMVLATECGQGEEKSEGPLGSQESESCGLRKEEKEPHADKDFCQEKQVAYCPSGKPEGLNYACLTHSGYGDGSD
T1 sequence (P08922 28-2347): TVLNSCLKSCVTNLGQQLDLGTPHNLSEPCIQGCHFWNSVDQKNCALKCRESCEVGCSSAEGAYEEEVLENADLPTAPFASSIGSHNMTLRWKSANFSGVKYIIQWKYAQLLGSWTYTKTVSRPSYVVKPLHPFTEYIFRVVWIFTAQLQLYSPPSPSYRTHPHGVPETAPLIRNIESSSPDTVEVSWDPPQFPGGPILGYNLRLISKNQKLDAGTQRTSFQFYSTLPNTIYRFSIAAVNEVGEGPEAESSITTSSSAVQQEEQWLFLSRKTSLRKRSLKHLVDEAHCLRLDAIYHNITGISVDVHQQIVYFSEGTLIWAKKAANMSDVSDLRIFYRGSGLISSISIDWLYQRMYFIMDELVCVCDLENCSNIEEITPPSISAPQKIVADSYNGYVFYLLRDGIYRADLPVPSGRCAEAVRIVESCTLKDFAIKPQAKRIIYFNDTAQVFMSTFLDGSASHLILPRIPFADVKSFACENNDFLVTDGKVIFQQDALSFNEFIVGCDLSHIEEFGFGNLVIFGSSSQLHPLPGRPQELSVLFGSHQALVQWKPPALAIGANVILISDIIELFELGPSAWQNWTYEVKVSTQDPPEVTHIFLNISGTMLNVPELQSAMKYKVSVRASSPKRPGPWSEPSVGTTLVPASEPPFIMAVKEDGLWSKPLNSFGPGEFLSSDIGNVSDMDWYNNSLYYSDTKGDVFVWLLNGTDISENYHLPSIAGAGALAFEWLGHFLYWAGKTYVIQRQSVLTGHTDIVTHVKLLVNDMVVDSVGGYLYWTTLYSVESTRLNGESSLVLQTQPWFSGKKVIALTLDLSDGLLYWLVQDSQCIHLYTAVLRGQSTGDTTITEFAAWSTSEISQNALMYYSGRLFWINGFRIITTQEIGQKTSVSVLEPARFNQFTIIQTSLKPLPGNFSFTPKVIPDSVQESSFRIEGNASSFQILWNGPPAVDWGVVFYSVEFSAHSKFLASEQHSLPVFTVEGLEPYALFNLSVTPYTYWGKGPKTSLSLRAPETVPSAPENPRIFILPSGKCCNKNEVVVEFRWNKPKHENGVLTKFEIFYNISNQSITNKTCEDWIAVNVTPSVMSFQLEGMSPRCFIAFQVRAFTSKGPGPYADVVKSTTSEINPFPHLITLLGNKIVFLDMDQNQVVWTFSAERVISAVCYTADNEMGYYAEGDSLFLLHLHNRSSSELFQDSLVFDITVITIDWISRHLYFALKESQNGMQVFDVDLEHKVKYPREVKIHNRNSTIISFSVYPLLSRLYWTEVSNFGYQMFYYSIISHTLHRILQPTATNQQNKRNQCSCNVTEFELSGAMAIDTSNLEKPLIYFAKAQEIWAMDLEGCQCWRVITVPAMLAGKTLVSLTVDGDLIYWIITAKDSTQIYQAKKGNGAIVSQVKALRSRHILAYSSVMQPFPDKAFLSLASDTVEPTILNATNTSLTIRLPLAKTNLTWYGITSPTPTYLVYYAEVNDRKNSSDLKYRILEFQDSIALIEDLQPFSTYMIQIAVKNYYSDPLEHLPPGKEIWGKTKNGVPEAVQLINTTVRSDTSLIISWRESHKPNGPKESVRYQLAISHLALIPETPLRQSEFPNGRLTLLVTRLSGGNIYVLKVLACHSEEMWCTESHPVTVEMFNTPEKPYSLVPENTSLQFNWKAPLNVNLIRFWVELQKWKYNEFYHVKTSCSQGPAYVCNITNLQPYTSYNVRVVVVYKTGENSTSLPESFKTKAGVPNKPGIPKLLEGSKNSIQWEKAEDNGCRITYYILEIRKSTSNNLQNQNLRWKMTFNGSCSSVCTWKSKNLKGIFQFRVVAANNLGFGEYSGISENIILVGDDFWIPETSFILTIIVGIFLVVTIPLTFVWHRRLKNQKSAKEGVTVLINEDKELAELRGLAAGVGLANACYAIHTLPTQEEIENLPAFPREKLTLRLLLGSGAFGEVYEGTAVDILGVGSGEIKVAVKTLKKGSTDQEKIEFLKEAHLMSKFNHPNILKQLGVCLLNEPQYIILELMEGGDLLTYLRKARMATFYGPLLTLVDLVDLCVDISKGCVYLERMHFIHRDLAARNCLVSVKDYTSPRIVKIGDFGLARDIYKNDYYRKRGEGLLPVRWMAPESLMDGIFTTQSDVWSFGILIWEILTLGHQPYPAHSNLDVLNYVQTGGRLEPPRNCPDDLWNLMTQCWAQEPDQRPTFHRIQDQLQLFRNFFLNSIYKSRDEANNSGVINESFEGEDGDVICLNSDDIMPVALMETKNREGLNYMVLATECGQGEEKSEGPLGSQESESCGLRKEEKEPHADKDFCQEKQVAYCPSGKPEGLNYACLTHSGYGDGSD
Chain of Ba/F3 cells containing Ros1 with a mutation at the gatekeeper residue (L2026M) (P08922 whole entry L2026M, form open): as the sequence (P08922 whole entry, stated change not applied) above, with L2026M counted along it

Row | EC50 ([3]; HCC78 cells, 4 days, MTT) | SMILES | IC50 (Ros1 enzyme) | IC50 ([1]; HCC78, 4 h) | Ba/F3 Ros1 L2026M (-IL-3) pIC50 [2] | EC50 [3] | CC50 [4] | BaF3-ROS1-IL3 pIC50 [5] | IC50 [1, 6] | CC50 [4, 7] | melting point
1 |  | COc1cc(-c2c(-c3ccnc(N)c3)nn3c2C(=O)N(C)CC3)ccc1OCc1ccc(C(C)C)cc1 [Compound 150] | 0.00794 µM | 0.01 µM | 7.4 | 0.0398 µM | > 10 µM | 7.6 |  |  | 
2 | 0.126 µM | CC(C)c1ccc(COc2ccc(-c3c(-c4ccncn4)nn4c3C(=O)N(CC3(C)COC3)CC4)cc2)cc1 [Compound 163] | 0.126 µM |  | 7.1 |  |  | 7.1 | 0.316 µM | > 10 µM | 
3 |  | CC(C)c1ccc(C2CCc3cc(-c4c(-c5ccncc5)nn5c4C(=O)NCC5)ccc3O2)cc1 (centres unmarked) [Compound 199] | 0.2 µM |  | 7.5 | 1.26 µM | > 10 µM | 7.1 |  |  | 262 °C
4 |  | COc1cc(C(C)C)ccc1COc1ccc(-c2c(-c3ccncc3)nn3c2C(=O)NCC3)cc1 [Compound 216] | 0.0631 µM |  | 6.9 | 0.631 µM | > 10 µM | 7.3 |  |  | 200 °C
5 |  | O=C1c2c(-c3ccc(OCc4ccc(OC(F)(F)F)cc4)cc3F)c(-c3ccncc3)nn2CCN1CCO [Compound 206] | 0.0398 µM |  | ~7.4 | 0.1 µM | > 10 µM | 7.5 |  |  | 140 °C
6 |  | CC(C)c1ccc(COc2ccc(-c3c(-c4ccncc4)nn4c3C(=O)NCC4)cc2Cl)cc1 [Compound 25] | 0.126 µM |  | 6.5 | 0.501 µM | > 10 µM | 6.8 |  |  | 251 °C
7 |  | CC(C)c1ccc(COc2ccc(-c3c(-c4ccncc4)nn4c3C(=O)N(CCO)CC4)cc2)c(F)c1 [Compound 92] | 0.0501 µM |  | 6.7 | 0.2 µM | > 10 µM | 7.2 |  |  | 132 °C
8 | 2 µM | CC(C)c1ccc(COc2ccc(-c3c(-c4ccncc4)nn4c3CN(C(=O)CN(C)C)CC4)cc2)cc1 [Compound 181] | 0.794 µM |  |  |  |  | 5.7 | 1.26 µM | 5.01 µM | 
9 | 0.2 µM | CC(O)CN1CCn2nc(-c3ccncc3)c(-c3ccc(OCc4ccc(C5CC5)cc4)cc3)c2C1=O (centres unmarked) [Compound 134] | 0.0794 µM |  | 7.0 |  |  | 7.3 |  | > 10 µM | 196 °C
10 | 0.794 µM | CC(C)c1ccc(COc2ccc(-c3c(-c4ccncc4)nn4c3C(=O)NC(CN(C)CCO)C4)cc2)cc1 (centres unmarked) [Compound 195] | 0.126 µM |  | 7.0 |  |  | 6.7 |  | > 10 µM | 193 °C
11 |  | COc1cc(-c2c(-c3ccncc3)nn3c2C(=O)NCC3)ncc1OCc1ccc(C(C)C)cc1 [Compound 72] | 0.0631 µM |  | 6.0 | 0.251 µM | > 10 µM | 7.2 |  |  | 231 °C
12 |  | O=C1c2c(-c3ccc(OCc4ccc(C5CC5)cc4)cc3)c(-c3ccncc3)nn2CCN1CCO [Compound 129] | 0.0631 µM |  | 7.0 | 0.1 µM | > 10 µM | 7.4 |  |  | 194 °C
13 |  | CC(C)NC(=O)CN1CCn2nc(-c3ccncc3)c(-c3ccc(OCc4ccc(C(C)C)cc4)cc3)c2C1=O [Compound 65] | 0.1 µM |  | 6.7 | 0.316 µM | > 10 µM | 7.2 |  |  | 159 °C
14 |  | CC(C)(C#N)c1ccc(COc2ccc(-c3c(-c4ccncc4)nn4c3C(=O)N(CCO)CC4)cc2)cc1 [Compound 122] | 0.126 µM |  | 7.1 | 0.0631 µM | > 10 µM | 6.9 |  |  | 199 °C
15 |  | CC(C)c1ccc(COc2ccc(-c3c(-c4ccncc4)nn4c3C(=O)N(CCO)CC4)cc2)cc1O [Compound 79] | 0.0251 µM |  | 7.3 | 2.51 µM | > 10 µM | 7.8 |  |  | 236 °C
16 | 0.794 µM | Cc1cc(C(C)C)ccc1COc1ccc(-c2c(-c3ccncc3)nn3c2C(=O)NCC3)cc1 [Compound 78] | 0.251 µM |  | 6.9 |  |  | 7.1 |  | > 10 µM | 247 °C
17 |  | CC(C)c1ccc(COc2ccc(-c3c(-c4ccncc4)nn4c3CN(CC(=O)NCCO)CC4)cc2)cc1 [Compound 175] | 0.1 µM |  | 6.8 | 0.398 µM | 5.01 µM | 6.9 |  |  | 189 °C
18 |  | COCC(C)(C)c1ccc(COc2ccc(-c3c(-c4ccncc4)nn4c3C(=O)NCC4)cc2)cc1 [Compound 126] | 0.2 µM |  | 6.6 | 1.26 µM | > 10 µM | 6.9 |  |  | 212 °C
19 |  | CC(C)c1ccc(CC(=O)c2ccc(-c3c(-c4ccncc4)nn4c3C(=O)NCC4)cc2)cc1 [Compound 148] | 6.31 µM |  | 5.9 | 1.58 µM | > 10 µM | 5.5 |  |  | 259 °C
20 |  | CC(C)c1ccc(COc2ccc(-c3c(-c4ccncc4)nn4c3C(=O)NCC4)cc2)cc1CCO [Compound 11] | 0.01 µM |  | 7.8 | 0.0316 µM | > 10 µM | 7.7 |  |  | 195 °C
21 |  | CC(C)c1ccc(COc2ccc(-c3c(-c4ccncc4)nn4c3C(=O)N(CCS(C)(=O)=O)CC4)cc2)cc1 [Compound 52] | 0.0501 µM |  | 6.9 | 0.251 µM | > 10 µM | 7.6 |  |  | 219 °C
22 |  | CC(C)c1ccc(COc2ccc(-c3c(-c4ccncc4)nn4c3C(=O)NCC4)c(C#N)c2)cc1 [Compound 27] | 0.0158 µM |  | 7.1 | 0.02 µM | > 10 µM | 7.7 |  |  | 268 °C
23 |  | CNCC1Cn2nc(-c3ccncc3)c(-c3ccc(OCc4ccc(C(C)C)cc4)cc3)c2C(=O)N1 (centres unmarked) [Compound 194] | 0.0794 µM |  | 6.2 | 0.501 µM | 6.31 µM | 6.6 |  |  | 230 °C
